In patent US10344330B2, “Glatiramer acetate response biomarker mRNA potency assay” (Mylan Inc., priority 2013, dated 2019):

Columns and labels:
Format in all cases: cell-based, mouse
[1] = test system: IL-12 (total) secreted by LN cells; test: IL-12 (total) secretion by GA-stimulated LN cells, MSD 9-plex ELISA (Example II); settings: for IL-12 (total) secretion response ratio (treated cell medium to control DCCM1 medium): 21 hr
Protocol: (§1) Animals at 8 weeks of age were immunized by injection into four footpads using a 1 mL syringe with a 27-G, 1⁄2-inch needle. […] Ten days post-immunization, immunized animals were sacrificed via cervical dislocation. […] The LN cells were isolated by pressing the LN with the plunger end of a sterile syringe. […] Trypan blue exclusion method was used to determine the cell density of viable cells in the suspension. […] Cat. […] LN cells were plated into a 24-well tissue culture plate for drug stimulation. […] Cell debris was removed by centrifugation at ca. 200×g for 10 minutes at 4° C. Cytokines secreted by treated cells were determined on the day of collection by ELISA using mouse TH 1/TH 2 9-Plex Tissue Culture Kit (Meso Scale Discovery; Cat No. […]-2, Lot #: K0032839) which detects Th1 cytokines (IFN-γ, IL-2, IL-12, IL-1β, TNF-α, CXCL1) and Th2 cytokines (IL-4, IL-5 and IL-10). For IFN-γ, culture media also were assayed at 45 hours using mouse IFN-γ Tissue Culture Kit (Meso Scale Discovery; Cat No. […] For the positive control, 0.5 mL of LN cells (5×10^6 cells/well) were treated with 0.5 mL of ConA (5 μg/mL). For the negative control, 0.5 mL of LN cells (5×10^6 cells/well) were treated with 0.5 mL of MBP (20 μg/mL). The LN cells with mock stimulation (enriched DCCM1 medium) were used to monitor the background level of a cytokine. For the cytokine assays, calibration standards or samples were incubated in the MULTI-SPOT or the SINGLE-SPOT plate and each cytokine bound to its corresponding capture antibody. All test samples were run in duplicate. The amount of each cytokine on its distinct spot was quantified using a cytokine-specific detection antibody labeled with MSD SULFO-TAGTM reagent. Electrochemiluminescent signals from immobilized SULFO-TAGTM-labeled complexes on each spot from each well were captured by the MSD SECTOR Imager 6000, which produces a signal directly proportional to the amount of captured cytokine in a test sample. The levels of cytokines in test samples were derived by interpolation from calibration curves with calibration standards of known concentrations using reagents provided with the MSD kits. Kits were used according to the manufacturer's protocols. […] Data are expressed as a response ratio of cytokine concentration in treated cell medium to control DCCM1 medium.

[2] = test system: mIL-4 mRNA in primary LN cells; test: mIL-4 mRNA by real-time PCR in stimulated LN cells of immunized (SJL/J×BALB/C)F1 mice (Example I); settings: for mIL-4 mRNA Level: Experiment 1, GA-immunized (SJL/J×BALB/C)F1; for mIL-4 mRNA: reference 18S rRNA
Protocol: For each of the three experiments summarized in Table 1, female (SJL/J×BALB/C) F1 hybrid (Jackson Laboratory) mice were immunized by footpad injection with either 250 μg GMA (Mylan Pharmaceuticals, Inc.) and CFA (Sigma Aldrich), or Mannitol and CFA (as a negative control). The GA solution was diluted to 5 mg/mL with Dulbecco's Phosphate-buffered saline. A dose solution was then prepared by mixing the diluted GA solution (5 mg/mL) and CFA (1:1) until well-emulsified. Each mouse received a total injection volume of 0.1 mL (250 μg GA). Animals were immunized on Day 0. Immunized animals were sacrificed via cervical dislocation on Day 10 following immunization. […] The LN were washed 3 times with −5 mL of RPMI medium, and the LN cells isolated by pressing the LN with a syringe plunger. […] The cell suspension was centrifuged at about 200×g for 10 minutes at about 4° C. and re-suspended in ice cold enriched DCCM-1 medium. The LN cells (2.5×10^6 cells/cm^2) were plated in the wells of a 48-well tissue culture plate and stimulated with GA or controls.
Expression of cytokine mRNA was quantitatively analyzed using a Real-Time PCR system (7500, Applied Biosystems).
(DCCM1 from Beit Haemek Ltd.; Cat. No. 05 010 1A). There was no MBP treatment for the 2-hour groups.
Group 1B animals were female (SJL/J×BALB/C) F1 hybrid (Jackson Laboratory) mice immunized by footpad injection with either 250 μg GA and CFA, or Mannitol and CFA (as a negative control). A dose solution was prepared by mixing a diluted GA solution (5 mg/mL) and CFA (1:1). Each mouse received a total injection volume of […] (250 μg GA). Animals were immunized on Day 0. Immunized animals were sacrificed via cervical dislocation on Day 10 following immunization. Lymph nodes from immunized mice were removed and isolated. LN cells (2.5×10^6 cells/cm^2) were plated in the wells of a 48-well tissue culture plate for stimulation with GA.
Expression of cytokine mRNA was quantitatively analyzed 4 and 6 hours after using a Real-Time PCR system (7500, Applied Biosystems).

[3] = test system: IL-10 secreted by LN cells; test: IL-10 secretion by GA-stimulated LN cells, MSD 9-plex ELISA (Example II); settings: for IL-10 secretion response ratio (treated cell medium to control DCCM1 medium): 21 hr
Protocol: as §1

[4] = 2 hour post stimulation, GA 10, ConA 2.5 μg/mL
[5] = 4 hour post stimulation, GA 10, MBP 10, ConA 2.5 μg/mL
[6] = 6 hour post stimulation, GA 10, MBP 10, ConA 2.5 μg/mL
[7] = 24 hour post stimulation, GA 10, MBP 10, ConA 2.5 μg/mL
[8] = Group 1B (GA + CFA), 4 hours post-stimulation, GA 10, MBP 10, ConA 2.5 μg/mL
[9] = Group 1B (GA + CFA), 6 hours post-stimulation, GA 10, MBP 10, ConA 2.5 μg/mL
[10] = Group 2B (Mannitol + CFA), 4 hours post-stimulation, GA 10, MBP 10, ConA 2.5 μg/mL
[11] = Group 2B (Mannitol + CFA), 6 hours post-stimulation, GA 10, MBP 10, ConA 2.5 μg/mL
[12] = BALB/cByJ, immunized GA Intraplantar
[13] = BALB/cByJ, immunized GA Lower Limb
[14] = BALB/cByJ, immunized Mannitol Intraplantar
[15] = C57BL10J, immunized GA Intraplantar
[16] = C57BL10J, immunized GA Lower Limb
[17] = C57BL10J, immunized Mannitol Intraplantar
[18] = CD-1, immunized GA Intraplantar
[19] = CD-1, immunized Mannitol Intraplantar

## L-glutamic acid polymer with L-alanine, L-lysine and L-tyrosine, acetate (salt) [GA]
[1]; cells from any of the three mouse strains
  IL-12 secretion, dose response to GA (in words): No dose response
[2]; [4]
  mIL-4 mRNA Level: 10.0 fold change vs control
[2]; [5]
  mIL-4 mRNA Level: 10.0 fold change vs control
[2]; [6]
  mIL-4 mRNA Level: 16.5 fold change vs control
[2]; [7]
  mIL-4 mRNA Level: 14.1 fold change vs control
[2]; [8]
  mIL-4 mRNA: 8.2 fold change vs control
[2]; [9]
  mIL-4 mRNA: 9.2 fold change vs control
[2]; Group 1B, 4 and 6 hours (summary of Table 9)
  mIL-4 mRNA level increase vs DCCM-1-stimulated control: at least 8 fold
[2]; [10]
  mIL-4 mRNA: 2.2 fold change vs control
[2]; [11]
  mIL-4 mRNA: 1.1 fold change vs control
[3]; BALB/cByJ cells and CD1 cells
  IL-10 secretion, dose response to GA (in words): dose-dependent manner

## Concanavalin A [ConA, reference compound]
[1]; [12]
  IL-12 (total) secretion response ratio (treated cell medium to control DCCM1 medium): 1.66
[1]; [13]
  IL-12 (total) secretion response ratio (treated cell medium to control DCCM1 medium): 1.10
[1]; [14]
  IL-12 (total) secretion response ratio (treated cell medium to control DCCM1 medium): 1.44
[1]; [15]
  IL-12 (total) secretion response ratio (treated cell medium to control DCCM1 medium): 1.88
[1]; [16]
  IL-12 (total) secretion response ratio (treated cell medium to control DCCM1 medium): 1.01
[1]; [17]
  IL-12 (total) secretion response ratio (treated cell medium to control DCCM1 medium): 0.92
[1]; [18]
  IL-12 (total) secretion response ratio (treated cell medium to control DCCM1 medium): 1.09
[1]; CD-1, immunized GA Lower Limb
  IL-12 (total) secretion response ratio (treated cell medium to control DCCM1 medium): 1.91
[1]; [19]
  IL-12 (total) secretion response ratio (treated cell medium to control DCCM1 medium): 1.80
[2]; [4]
  mIL-4 mRNA Level: 35.7 fold change vs control
[2]; [5]
  mIL-4 mRNA Level: 47.6 fold change vs control
[2]; [6]
  mIL-4 mRNA Level: 52.2 fold change vs control
[2]; [7]
  mIL-4 mRNA Level: 6.1 fold change vs control
[2]; [8]
  mIL-4 mRNA: 27.1 fold change vs control
[2]; [9]
  mIL-4 mRNA: 12.8 fold change vs control
[2]; [10]
  mIL-4 mRNA: 37.3 fold change vs control
[2]; [11]
  mIL-4 mRNA: 56.2 fold change vs control
[3]; [12]
  IL-10 secretion response ratio (treated cell medium to control DCCM1 medium): 23.65
[3]; [13]
  IL-10 secretion response ratio (treated cell medium to control DCCM1 medium): 18.32
[3]; [14]
  IL-10 secretion response ratio (treated cell medium to control DCCM1 medium): 21.86
[3]; [15]
  IL-10 secretion response ratio (treated cell medium to control DCCM1 medium): 1.62
[3]; [16]
  IL-10 secretion response ratio (treated cell medium to control DCCM1 medium): 1.50
[3]; [17]
  IL-10 secretion response ratio (treated cell medium to control DCCM1 medium): 1.04
[3]; [18]
  IL-10 secretion response ratio (treated cell medium to control DCCM1 medium): 13.70
[3]; CD-1, immunized GA Lower Limb
  IL-10 secretion response ratio (treated cell medium to control DCCM1 medium): 8.64
[3]; [19]
  IL-10 secretion response ratio (treated cell medium to control DCCM1 medium): 10.96

B1: MBP: myelin basic protein, a negative control (protein, UniProt P02686 1-304, looked up)
Myelin basic protein: MGNHAGKRELNAEKASTNSETNRGESEKKRNLGELSRTTSEDNEVFGEADANQNNGTSSQDTAVTDSKRTADPKNAWQDAHPADPGSRPHLIRLFSRDAPGREDNTFKDRPSESDELQTIQEDSAATSESLDVMASQKRPSQRHGSKYLATASTMDHARHGFLPRHRDTGILDSIGRFFGGDRGAPKRGSGKDSHHPARTAHYGSLPQKSHGRTQDENPVVHFFKNIVTPRTPPPSQGKGRGLSLSRFSWGAEGQRPGFGYGGRASDYKSAHKGFKGVDAQGTLSKIFKLGGRDSRSGSPMARR
[1]; [12]
  IL-12 (total) secretion response ratio (treated cell medium to control DCCM1 medium): 1.09
[1]; [13]
  IL-12 (total) secretion response ratio (treated cell medium to control DCCM1 medium): 1.04
[1]; [14]
  IL-12 (total) secretion response ratio (treated cell medium to control DCCM1 medium): 1.05
[1]; [15]
  IL-12 (total) secretion response ratio (treated cell medium to control DCCM1 medium): 1.18
[1]; [16]
  IL-12 (total) secretion response ratio (treated cell medium to control DCCM1 medium): 1.19
[1]; [17]
  IL-12 (total) secretion response ratio (treated cell medium to control DCCM1 medium): 1.13
[1]; [18]
  IL-12 (total) secretion response ratio (treated cell medium to control DCCM1 medium): 1.22
[1]; CD-1, immunized GA Lower Limb
  IL-12 (total) secretion response ratio (treated cell medium to control DCCM1 medium): 1.18
[1]; [19]
  IL-12 (total) secretion response ratio (treated cell medium to control DCCM1 medium): 0.99
[2]; [5]
  mIL-4 mRNA Level: 0.8 fold change vs control
[2]; [6]
  mIL-4 mRNA Level: 0.6 fold change vs control
[2]; [7]
  mIL-4 mRNA Level: 1.1 fold change vs control
[2]; [8]
  mIL-4 mRNA: 0.5 fold change vs control
[2]; [9]
  mIL-4 mRNA: 0.3 fold change vs control
[2]; [10]
  mIL-4 mRNA: 1.4 fold change vs control
[2]; [11]
  mIL-4 mRNA: 0.8 fold change vs control
[3]; [12]
  IL-10 secretion response ratio (treated cell medium to control DCCM1 medium): 1.10
[3]; [13]
  IL-10 secretion response ratio (treated cell medium to control DCCM1 medium): 1.12
[3]; [14]
  IL-10 secretion response ratio (treated cell medium to control DCCM1 medium): 1.07
[3]; [15]
  IL-10 secretion response ratio (treated cell medium to control DCCM1 medium): 1.04
[3]; [16]
  IL-10 secretion response ratio (treated cell medium to control DCCM1 medium): 1.00
[3]; [17]
  IL-10 secretion response ratio (treated cell medium to control DCCM1 medium): 1.08
[3]; [18]
  IL-10 secretion response ratio (treated cell medium to control DCCM1 medium): 1.39
[3]; CD-1, immunized GA Lower Limb
  IL-10 secretion response ratio (treated cell medium to control DCCM1 medium): 1.41
[3]; [19]
  IL-10 secretion response ratio (treated cell medium to control DCCM1 medium): 1.38
